Source: the supplement of paper PMC10307832

Tests used:
Test in all cases: relative viability (nuclei count vs DMSO), 5 days (fraction); higher = more cells survive
Midostaurin + Foretinib = compound: CO[C@@H]1[C@H](N(C)C(=O)c2ccccc2)C[C@H]2O[C@]1(C)n1c3ccccc3c3c4c(c5c6ccccc6n2c5c31)C(=O)NC4 [Midostaurin] + COc1cc2c(Oc3ccc(NC(=O)C4(C(=O)Nc5ccc(F)cc5)CC4)cc3F)ccnc2cc1OCCCN1CCOCC1 [Foretinib] (partner 0.25 µM)
Procedure, shortened: (§1)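 Lung cancer cell lines were seeded in 1536-well plates and dosed by pin tool the next day, with either a single drug or a fixed anchor-drug dose combined with five library-drug doses (not always all listed) spaced in √10 steps. Five days later, one step fixed the cells and stained their nuclei (final 0.05% Triton X-100, 1% formaldehyde, 1 ug/ml Hoechst), and nuclei were counted on 4× images. Relative viability is the nuclei count in treated wells divided by the count in vehicle wells, and each value is the median of duplicate plates.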

[1] = compound: COc1cc(-c2nn([C@H]3CC[C@H](N4CCN(C(C)=O)CC4)CC3)c3ncnc(N)c23)ccc1NC(=O)c1cc2ccccc2n1C + Nc1ncn([C@H]2C[C@H](O)[C@@H](CO)O2)c(=O)n1 [Decitabine] (partner 2 µM)
Procedure, shortened: as §1

[2] = compound: COc1cc(-c2nn([C@H]3CC[C@H](N4CCN(C(C)=O)CC4)CC3)c3ncnc(N)c23)ccc1NC(=O)c1cc2ccccc2n1C + O=C(c1cc(Cc2n[nH]c(=O)c3ccccc23)ccc1F)N1CCN(C(=O)C2CC2)CC1 [Olaparib] (partner 8 µM)
Procedure, shortened: as §1

[3] = compound: COc1cc(-c2nn([C@H]3CC[C@H](N4CCN(C(C)=O)CC4)CC3)c3ncnc(N)c23)ccc1NC(=O)c1cc2ccccc2n1C + Cc1cc(Nc2cc(N3CCN(C)CC3)nc(Sc3ccc(NC(=O)C4CC4)cc3)n2)n[nH]1 [Tozasertib] (partner 0.1 µM)
Procedure, shortened: as §1

[4] = compound: COc1cc(-c2nn([C@H]3CC[C@H](N4CCN(C(C)=O)CC4)CC3)c3ncnc(N)c23)ccc1NC(=O)c1cc2ccccc2n1C + O=C(CCCCCCC(=O)Nc1ccccc1)NO [Vorinostat] (partner 1 µM)
Procedure, shortened: as §1

| Cell Line | relative viability (Midostaurin + Foretinib; first compound 0.01 µM) | relative viability (Midostaurin + Foretinib; first compound 0.03162 µM) | relative viability (Midostaurin + Foretinib; first compound 0.1 µM) | relative viability (Midostaurin + Foretinib; first compound 0.3162 µM) | relative viability ([1]; first compound 0.0128 µM) | relative viability ([1]; first compound 0.04048 µM) | relative viability ([1]; first compound 0.128 µM) | relative viability ([1]; first compound 1.28 µM) | relative viability ([2]; first compound 0.0128 µM) | relative viability ([2]; first compound 0.04048 µM) | relative viability ([2]; first compound 0.128 µM) | relative viability ([2]; first compound 1.28 µM) | relative viability ([3]; first compound 0.0128 µM) | relative viability ([3]; first compound 0.04048 µM) | relative viability ([3]; first compound 0.128 µM) | relative viability ([3]; first compound 1.28 µM) | relative viability ([4]; first compound 0.0128 µM) | relative viability ([4]; first compound 0.04048 µM) | relative viability ([4]; first compound 0.128 µM) | relative viability ([4]; first compound 1.28 µM) |
| --- | --- | --- | --- | --- | --- | --- | --- | --- | --- | --- | --- | --- | --- | --- | --- | --- | --- | --- | --- | --- |
| NCI-H1437 | 1.26 | 1.09 | 1.22 | 1.22 | 0.576 | 0.6 | 0.558 | 0.599 | 0.689 | 0.636 | 0.628 | 0.595 | 0.393 | 0.437 | 0.387 | 0.277 | 0.967 | 1 | 0.856 | 0.864 |
| NCI-H460 | 1.02 | 0.932 | 1 | 0.95 | 0.495 | 0.452 | 0.451 | 0.433 | 0.48 | 0.47 | 0.312 | 0.386 | 0.47 | 0.113 | 0.278 | 0.0922 | 0.735 | 0.983 | 0.642 | 0.709 |
| NCI-H1666 | 0.881 | 0.954 | 0.786 | 0.754 | 0.71 | 0.673 | 0.758 | 0.66 | 0.763 | 0.793 | 0.793 | 0.827 | 0.619 | 0.67 | 0.593 | 0.587 | 1.14 | 0.938 | 1.13 | 1.14 |
| SW 900 | 0.876 | 0.746 | 0.822 | 0.763 | 0.524 | 0.381 | 0.507 | 0.52 | 1 | 1.17 | 0.845 | 0.574 | 0.665 | 0.539 | 0.402 | 0.343 | 0.806 | 0.582 | 0.511 | 0.621 |
| NCI-H1651 | 0.882 | 0.819 | 0.764 | 0.683 | 0.587 | 0.654 | 0.605 | 0.438 | 0.19 | 0.177 | 0.205 | 0.165 | 0.616 | 0.769 | 0.635 | 0.37 | 0.571 | 0.618 | 0.545 | 0.495 |
| NCI-H1755 | 0.944 | 0.848 | 0.787 | 0.628 | 0.768 | 0.738 | 0.699 | 0.611 | 0.888 | 0.922 | 0.832 | 0.863 | 0.617 | 0.604 | 0.534 | 0.546 | 1 | 0.945 | 0.721 | 0.951 |
| NCI-H661 | 0.903 | 0.847 | 1.02 | 1.04 | 0.513 | 0.532 | 0.511 | 0.509 | 0.817 | 0.843 | 0.724 | 0.763 | 0.362 | 0.381 | 0.346 | 0.34 | 0.761 | 0.971 | 0.819 | 1.01 |
| HARA | 0.904 | 0.887 | 0.91 | 0.891 | 0.609 | 0.699 | 0.612 | 0.381 | 0.873 | 0.923 | 0.78 | 0.445 | 0.11 | 0.0748 | 0.101 | 0.0842 | 0.698 | 0.372 | 0.421 | 0.325 |
